From patent US10576078B2 (Council of Scientific & Industrial Research, priority 2017, dated 2020)

Experiments:
[1] = test system: chronic phase CML patient-derived mononuclear cells (CP-CML cells); experiment: Apoptosis by annexin V/PI staining in CP-CML cells; type: cell-based, Human; details: 5 μM, 48 h
Source text: FD; freshly diagnosed, Resp; imatinib-responder, Res; imatinib-resistant.
Peripheral blood samples were obtained from chronic phase (CP-CML), accelerated phase (AP) or blast crisis (BC) CML patients (BCR− ABL+ v e freshly diagnosed, Imatinib-resistant or responders), and healthy donors from King George's Medical University (Clinical Hematology and Medical Oncology division), Lucknow, following ethical approval (Approval No: 1638/R. Cell-12) as per institutional ethical guidelines after written consent. Peripheral blood mononuclear cells (PBMC) were isolated on Percoll (Sigma) density gradient by centrifugation. Briefly, the blood was collected in vials coated with trisodium citrate buffer. Cells were then centrifuged 700 g for 10 min and plasma was removed. The pellet was resuspended in 6 ml Hank's balanced salt solution (HBSS; Invitrogen, Thermo Fisher Scientific), and then 2 ml of 6% Dextran in HBSS was added to it. Cells were then incubated at 37° C. for 30 min. The supernatant was then collected and centrifuged at 300 g for 5 min. The pellet was then resuspended in 2 ml HBSS supplemented with 0.18% glucose and loaded onto percoll gradient. PBMCs were then isolated by centrifugation.

K562 cells [2] = experiment: Apoptosis by annexin V/PI staining and flow cytometry in K562 cells; type: cell-based, Human; details: 48 h
Method: K562 cells were treated with CFZ for 48 h and apoptosis was analyzed by annexin V and propidium iodide (PI) staining followed by flow-cytometry (FACSCalibur, BD biosciences). (C) Mean±SEM of three independent experiments are plotted. (D) Representative dot plot.

K562 cells [3] = experiment: Western blotting of apoptosis proteins in K562 cells; type: cell-based, Human
Method: PARP cleavage in K562 cells was assessed by western blotting. One representative of three independent experiments is shown.
The expression of indicated proteins was determined by immunoblotting in K562 cells following indicated treatments. One representative of three independent experiments is shown.
K562 cells were cultured in 6 well plates and treated as indicated in figures or descriptions of FIG. 1E, FIG. 1G and FIG. 2D-E. Cells were then homogenized in lysis buffer containing 50 mM Tris-HCl, pH 7.5, 150 mM NaCl, 1% NP40, 5 mM EDTA, 1 mM DTT, protease and phosphatase inhibitor cocktails (Sigma) and incubated on ice for 30 min followed by 5 cycles of freeze-thaw. Samples were then centrifuged at 14000 rpm at 4° C. for 30 min. Supernatants were then quantified by Bichinchonic acid (Sigma)-based protein estimation. Equal amount of proteins were solubilized in Laemmli buffer, and were resolved by 10%-12% SDS PAGE and transferred onto PVDF membranes (Millipore; Billerica, Mass.). Membranes were blocked in 5% (w/v) non-fat dried milk powder (Sigma) in PBS containing 0.2% Tween 20 (Sigma). The membranes were then sequentially incubated with primary and secondary antibodies in PBS containing 0.2% Tween 20 and 2.5% BSA (with 3 washes in between). Immunoreactivity was detected using a chemiluminescent HRP Substrate (Millipore) in a LAS 4010 Chemi-doc Imager (GE Healthcare, Little Chalfont, UK). Antibodies used: phospho-STAT5, STAT5, cleaved PARP and caspases-3, -8, -9, pCrkL, Bcl2 and Bax antibodies were from Cell Signaling Technology (Boston, Mass.). Mouse monoclonal anti-β-Actin-Peroxidase and horse raddish peroxidase-conjugated secondary antibodies were from Sigma-Aldrich. For immunoblotting all primary antibodies were used in 1:1000 dilutions except β-actin (1:50000). Secondary antibodies were used at 1:10000 dilutions.

[4] = rat, in vivo, po
Source text: (§1) Sprague-Dawley rats (n=6 per group) were divided into 3 groups. […] Plasma was separated and processed for analysis by LC-MS/MS. For pharmacokinetic and statistical analysis, plasma concentration versus time data were plotted and analyzed by non-compartmental analysis method using WinNonlin (Pharsight, Mountain View, Calif.) software.
as §1, with “For this SD” for “Sprague-Dawley”

[5] = test system: Peripheral blood mononuclear cells from control donors; experiment: Apoptosis by annexin V/PI staining in PBMC from control donors; type: cell-based, Human; details: 5 μM, 48 h
CrkL = experiment: Immunoblotting of CrkL phosphorylation in K562 cells; type: cell-based, Human; details: 30 min, Y207
Method: K562 cells were treated as indicated for 30 min and stat5 phosphorylation at Y694 or CrkL phosphorylation at Y207 were assessed by immunoblotting. Total stat5 or β-actin expression was assessed to ensure equal loading. Pio was used as a negative control and IMT was used as a positive control. Data is one representative of 3 independent experiments.
K562 cells were cultured in 6 well plates and treated as indicated in figures or descriptions of FIG. 1E, FIG. 1G and FIG. 2D-E. Cells were then homogenized in lysis buffer containing 50 mM Tris-HCl, pH 7.5, 150 mM NaCl, 1% NP40, 5 mM EDTA, 1 mM DTT, protease and phosphatase inhibitor cocktails (Sigma) and incubated on ice for 30 min followed by 5 cycles of freeze-thaw. Samples were then centrifuged at 14000 rpm at 4° C. for 30 min. Supernatants were then quantified by Bichinchonic acid (Sigma)-based protein estimation. Equal amount of proteins were solubilized in Laemmli buffer, and were resolved by 10%-12% SDS PAGE and transferred onto PVDF membranes (Millipore; Billerica, Mass.). Membranes were blocked in 5% (w/v) non-fat dried milk powder (Sigma) in PBS containing 0.2% Tween 20 (Sigma). […] Immunoreactivity was detected using a chemiluminescent HRP Substrate (Millipore) in a LAS 4010 Chemi-doc Imager (GE Healthcare, Little Chalfont, UK). […]

[6] = test system: CD34+ cells from imatinib-resistant patients (quiescent LSCs); experiment: CFSE assay of quiescent LSCs; type: cell-based, Human
Method: Cells were gated depending on CFSE intensity. […] Apoptosis in these cells was determined by annexin V staining.
For assessing apoptosis in quiescent LSCs, purified CD34^+ cells were first stained with carboxyfluorescein succinimidyl ester (CFSE; Invitrogen) for 30 min. Cells were then washed and resuspended in SFM medium with 5 growth factors and were kept at 37° C. overnight. Next day, cells were treated as indicated in SFM medium with growth factors and were maintained further for 4 days with supplementation of the drugs every 48 h (drug concentrations in FIG. 5 and its description). Cells were then harvested, washed, and were labeled with CD34-PE and Annexin-APC antibodies and then gated into non-dividing cells (CD34^+CFSE^bright) and dividing cell (CD34^+CFSE^dim) population based on CFSE fluorescence intensity. […] Number of cells or apoptosis was determined by flowcytometry.

CP-CML cells = experiment: Megakaryocytic surface markers in CP-CML cells by flow cytometry; type: cell-based, Human; details: 2.5 μM CFZ, 72 h
Method: FIG. 3D-3E in particular show CFZ induces megakaryocytic surface markers CD61 and CD41 in CP-CML cells. CD61 (D) and CD41 (E) surface expression in CP-CML (gated monocytes) cells after treatment with 2.5 μM CFZ for 72 h were assessed by flowcytometry. *p<0.05, ***p<0.0001.
Differentiation analyses by flow cytometry: K562 (FIG. 3B-C) or primary CP-CML cells (FIG. 3D-E) were treated with vehicle, CFZ and PMA as indicated in the respective figures and figure descriptions for 72 hrs. Cells were then harvested, washed, and centrifuged, resuspended in 100 μl PBS and were stained with CD41-FITC or CD61-PE antibodies for 30 min at room temperature (in dark). After incubation, the cells were washed and resuspended in 300 μl PBS and were analyzed on a FACSCalibur flow cytometer.

Tmax in combination group compared to individual groups [4]: no change | clearance in combination group compared to individual groups [4]: lower
Structure (SMILES): CC(C)/N=c1\cc2n(-c3ccc(Cl)cc3)c3ccccc3nc-2cc1Nc1ccc(Cl)cc1 [CFZ, Clofazimine]
efficacy of apoptosis induction ([1]; CP-CML cells from freshly diagnosed patients): comparable to imatinib | efficacy of apoptosis induction ([1]; CP-CML cells from imatinib responders): comparable to imatinib | efficacy of apoptosis induction versus dasatinib ([1]; CP-CML cells harboring BCR-ABL mutation F359V): higher | efficacy of apoptosis induction versus dasatinib ([1]; CP-CML cells harboring BCR-ABL mutation M244V): comparable | efficacy of apoptosis induction versus dasatinib ([1]; CP-CML cells harboring BCR-ABL mutation M351T): higher | efficacy of apoptosis induction versus dasatinib ([1]; CP-CML cells harboring BCR-ABL mutation Y253H): higher | efficacy of apoptosis induction ([1]; imatinib-resistant CP-CML cells): higher than imatinib and dasatinib | apoptosis by Annexin V staining (K562 cells [2]): concentration-dependently induces apoptosis | Bax expression (K562 cells [3]): increased | Bcl-2 expression (K562 cells [3]): decreased | caspase-3 activation (K562 cells [3]): activated | caspase-9 activation (K562 cells [3]): activated | cytochrome C release (K562 cells [3]): induced | apoptosis as determined by PARP cleavage (K562 cells [3]; western blotting): induces apoptosis | apoptosis in cells from control donors [5]: didn't affect | CrkL phosphorylation (CrkL): did not alter | apoptosis in CFSE-bright cells ([6]; 96 h, annexin V): robust apoptosis | apoptosis in CFSE-dim cells ([6]; 96 h, annexin V): robust apoptosis | CFSE-dim (dividing cell) population ([6]; n=3, 96 h): increased | number of CFSE-bright (non-dividing) cells ([6]; n=3, 96 h): drastically reduced | megakaryocytic surface marker CD41 (CP-CML cells): increased | megakaryocytic surface marker CD61 (CP-CML cells): increased
